Among the data in US20190388425A1, “SUBSTITUTED IMIDAZOPYRIDINPYRIMIDINES” (Bayer Pharma Aktiengesellschaft, priority 2017, published 2019) are IC50 values, retold here.

pIC50: −log10 of the molar value.

This test concerns the target T1, human full-length MKNK1 (Homo sapiens, UniProt Q9BUB5, T385D).
T1 construct: GST (N); purchased Carna Biosciences 02-145; host or cells: insect cells (baculovirus expression system)
Kind of test: MKNK1 kinase high ATP assay (TR-FRET). It is filed as biochemical. The conditions noted are these: TR-FRET, 2 mM ATP (high ATP), 15 min preincubation with enzyme, 30 min reaction at 22° C.; read-out: MKNK1 IC50. An outline of the steps:
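Full-length human MKNK1 (T385D) preincubated 15 min at 22 °C with compound in HEPES pH 7.5/MgCl2/DTT buffer; reaction with 2 mM ATP (final) and 0.06 μM biotinylated peptide (final), 30 min at 22 °C.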

T1 sequence (Q9BUB5 1-424 isoform Q9BUB5-2 T344D): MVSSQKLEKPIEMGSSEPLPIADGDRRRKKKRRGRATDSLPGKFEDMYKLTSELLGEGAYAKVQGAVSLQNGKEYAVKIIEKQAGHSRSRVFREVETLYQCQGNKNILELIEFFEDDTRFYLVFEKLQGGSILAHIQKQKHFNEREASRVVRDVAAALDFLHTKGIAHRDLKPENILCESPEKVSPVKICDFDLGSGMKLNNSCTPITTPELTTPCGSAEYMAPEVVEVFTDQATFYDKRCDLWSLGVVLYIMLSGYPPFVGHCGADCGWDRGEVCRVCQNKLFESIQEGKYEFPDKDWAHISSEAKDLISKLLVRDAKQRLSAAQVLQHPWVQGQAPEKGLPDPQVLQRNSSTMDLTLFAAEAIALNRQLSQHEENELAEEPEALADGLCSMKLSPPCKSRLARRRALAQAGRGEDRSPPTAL

Usually pIC50 stands for −log10 of the IC50, conventionally taken in molar units. `Cc1cc(Nc2ncnc3sc4c(c23)CC[C@H](C(=O)N2CC(C)(O)C2)C4)c(=O)n2c1C(=O)NC21CCCCC1` [Example 6, 6′-({(7S)-7-[(3-Hydroxy-3-methylazetidin-1-yl)carbonyl]-5,6,7,8-tetrahydro[1]benzothieno[2,3-d]pyrimidin-4-yl}amino)-8′-methyl-2′H-spiro[cyclohexane-1,3′-imidazo[1,5-a]pyridine]-1′,5′-dione]: the pIC50 was 8.82.
In the case of `Cc1cc(Nc2ncnc3sc4c(c23)CC[C@H](C(=O)N(C)CCN(C)C)C4)c(=O)n2c1C(=O)NC21CCCCC1` [Example 12, (7S)—N-[2-(Dimethylamino)ethyl]-N-methyl-4-[(8′-methyl-1′,5′-dioxo-1′,5′-dihydro-2′H-spiro[cyclohexane-1,3′-imidazo[1,5-a]pyridin]-6′-yl)amino]-5,6,7,8-tetrahydro[1]benzothieno[2,3-d]pyrimidine-7-carboxamide] it was 9.70.
In the case of `Cc1cc(Nc2ncnc3sc4c(c23)CC[C@H](C(=O)N2C[C@H]3C[C@@H]2CO3)C4)c(=O)n2c1C(=O)NC21CCC1` [Example 26, 8′-Methyl-6′-({(7S)-7-[(1R,4R)-2-oxa-5-azabicyclo[2.2.1]hept-5-ylcarbonyl]-5,6,7,8-tetrahydro[1]benzothieno[2,3-d]pyrimidin-4-yl}amino)-2′H-spiro[cyclobutane-1,3′-imidazo[1,5-a]pyridine]-1′,5′-dione] it was 9.15; in that of `C[C@@H]1CN(C(=O)[C@H]2CCc3c(sc4ncnc(Nc5cc(Cl)c6n(c5=O)C5(CSC5)NC6=O)c34)C2)CCN1C` [Example 107, 8-Chloro-6-({(7S)-7-[(3R)-3,4-dimethylpiperazine-1-carbonyl]-5,6,7,8-tetrahydro[1]benzothieno[2,3-d]pyrimidin-4-yl}amino)-2H-spiro[imidazo[1,5-a]pyridine-3,3′-thietane]-1,5-dione], 9.70.
Consider `CC1(C)NC(=O)c2c(Cl)cc(Nc3ncnc4sc5c(c34)CC[C@H](C(=O)N3C[C@H]4C[C@@H]3CO4)C5)c(=O)n21` [Example 116, 8-Chloro-3,3-dimethyl-6-({(7S)-7-[(1R,4R)-2-oxa-5-azabicyclo[2.2.1]heptane-5-carbonyl]-5,6,7,8-tetrahydro[1]benzothieno[2,3-d]pyrimidin-4-yl}amino)-2,3-dihydroimidazo[1,5-a]pyridine-1,5-dione], for which the pIC50 is 9.52.
Take `O=C1NC2(CCCC2)n2c1c(Cl)cc(Nc1ncnc3sc4c(c13)CC[C@H](C(=O)O)C4)c2=O` [Example 84, (7S)-4-[(8′-Chloro-1′,5′-dioxo-1′,5′-dihydro-2′H-spiro[cyclopentane-1,3′-imidazo[1,5-a]pyridin]-6′-yl)amino]-5,6,7,8-tetrahydro[1]benzothieno[2,3-d]pyrimidine-7-carboxylic acid]: the pIC50 is 9.00.
In the case of `C[C@@H]1CN(C(=O)[C@H]2CCc3c(sc4ncnc(Nc5cc(Cl)c6n(c5=O)C5(CCCC5)NC6=O)c34)C2)CCN1C` [Example 91, 8′-Chloro-6′-({(7S)-7-[(3R)-3,4-dimethylpiperazine-1-carbonyl]-5,6,7,8-tetrahydro[1]benzothieno[2,3-d]pyrimidin-4-yl}amino)-2′H-spiro[cyclopentane-1,3′-imidazo[1,5-a]pyridine]-1′,5′-dione] it was greater than 10.00; in that of `Cc1cc(Nc2ncnc3sc4c(c23)CC[C@H](C(=O)N2CC[C@H](N(C)C)C2)C4)c(=O)n2c1C(=O)NC21CCC(F)(F)CC1` [Example 56, 6′-{[(7S)-7-{[(3S)-3-(Dimethylamino)pyrrolidin-1-yl]carbonyl}-5,6,7,8-tetrahydro[1]benzothieno[2,3-d]pyrimidin-4-yl]amino}-4,4-difluoro-8′-methyl-2′H-spiro[cyclohexane-1,3′-imidazo[1,5-a]pyridine]-1′,5′-dione], 8.70; in that of `O=C1NC2(CCCCC2)n2c1c(Cl)cc(Nc1ncnc3sc4c(c13)CC[C@H](C(=O)O)C4)c2=O` [Example 73, (7S)-4-[(8′-Chloro-1′,5′-dioxo-1′,5′-dihydro-2′H-spiro[cyclohexane-1,3′-imidazo[1,5-a]pyridin]-6′-yl)amino]-5,6,7,8-tetrahydro[1]benzothieno[2,3-d]pyrimidine-7-carboxylic acid], 8.80.
For `Cc1cc(Nc2ncnc3sc4c(c23)CC[C@H](C(=O)N2C3CCC2CC(=O)C3)C4)c(=O)n2c1C(=O)NC21CCCCC1` [Example 13, 8′-Methyl-6′-({(7S)-7-[(3-oxo-8-azabicyclo[3.2.1]oct-8-yl)carbonyl]-5,6,7,8-tetrahydro[1]benzothieno[2,3-d]pyrimidin-4-yl}amino)-2′H-spiro[cyclohexane-1,3′-imidazo[1,5-a]pyridine]-1′,5′-dione] the value was 9.40.
For `Cc1cc(Nc2ncnc3sc4c(c23)CC[C@H](C(=O)N2CC(C#N)C2)C4)c(=O)n2c1C(=O)NC21CCCCC1` [Example 5, 1-({(7S)-4-[(8′-Methyl-1′,5′-dioxo-1′,5′-dihydro-2′H-spiro[cyclohexane-1,3′-imidazo[1,5-a]pyridin]-6′-yl)amino]-5,6,7,8-tetrahydro[1]benzothieno[2,3-d]pyrimidin-7-yl}carbonyl)azetidine-3-carbonitrile] the value was 8.96; for `Cc1cc(Nc2ncnc3sc4c(c23)CC[C@H](C(=O)N2CCN(C)[C@H](C)C2)C4)c(=O)n2c1C(=O)NC21CS(=O)(=O)C1` [Example 71, 6-{[(7S)-7-{[(3R)-3,4-Dimethylpiperazin-1-yl]carbonyl}-5,6,7,8-tetrahydro[1]benzothieno[2,3-d]pyrimidin-4-yl]amino}-8-methyl-2H-spiro[imidazo[1,5-a]pyridine-3,3′-thietane]-1,5-dione 1′,1′-dioxide], 9.10.
As to `Cc1cc(Nc2ncnc3sc4c(c23)CC[C@H](C(=O)N2CC[C@H](N(C)C)C2)C4)c(=O)n2c1C(=O)N[C@]21CC[C@@](O)(C(F)(F)F)CC1` [Example 63, (cis)-6′-{[(7S)-7-{[(3S)-3-(Dimethylamino)pyrrolidin-1-yl]carbonyl}-5,6,7,8-tetrahydro[1]benzothieno[2,3-d]pyrimidin-4-yl]amino}-4-hydroxy-8′-methyl-4-(trifluoromethyl)-2′H-spiro[cyclohexane-1,3′-imidazo[1,5-a]pyridine]-1′,5′-dione], the pIC50 is 8.80.
For `CN(C)C(=O)[C@H]1CCc2c(sc3ncnc(Nc4cc(Cl)c5n(c4=O)C4(CCCCC4)NC5=O)c23)C1` [Example 75, (7S)-4-[(8′-Chloro-1′,5′-dioxo-1′,5′-dihydro-2′H-spiro[cyclohexane-1,3′-imidazo[1,5-a]pyridin]-6′-yl)amino]-N,N-dimethyl-5,6,7,8-tetrahydro[1]benzothieno[2,3-d]pyrimidine-7-carboxamide] the value was 8.77.
In the case of `Cc1cc(Nc2ncnc3sc4c(c23)CC[C@H](C(=O)N2CCN(C)[C@H](C)C2)C4)c(=O)n2c1C(=O)NC2(C)C` [Example 32, 6-{[(7S)-7-{[(3R)-3,4-Dimethylpiperazin-1-yl]carbonyl}-5,6,7,8-tetrahydro[1]benzothieno[2,3-d]pyrimidin-4-yl]amino}-3,3,8-trimethyl-2,3-dihydroimidazo[1,5-a]pyridine-1,5-dione] it was 9.30.
Turning to `CC1(C)NC(=O)c2c(Cl)cc(Nc3ncnc4sc5c(c34)CC[C@H](C(=O)O)C5)c(=O)n21` [Example 109, (7S)-4-[(8-Chloro-3,3-dimethyl-1,5-dioxo-1,2,3,5-tetrahydroimidazo[1,5-a]pyridin-6-yl)amino]-5,6,7,8-tetrahydro[1]benzothieno[2,3-d]pyrimidine-7-carboxylic acid], the pIC50 is 7.57.
In the case of `C[C@@H]1COCCN1C(=O)[C@H]1CCc2c(sc3ncnc(Nc4cc(Cl)c5n(c4=O)C4(CCCCC4)NC5=O)c23)C1` [Example 79, 8′-Chloro-6′-{[(7S)-7-{[(3R)-3-methylmorpholin-4-yl]carbonyl}-5,6,7,8-tetrahydro[1]benzothieno[2,3-d]pyrimidin-4-yl]amino}-2′H-spiro[cyclohexane-1,3′-imidazo[1,5-a]pyridine]-1′,5′-dione] it was 9.52; in that of `CN(C)C(=O)[C@H]1CCc2c(sc3ncnc(Nc4cc(Cl)c5n(c4=O)C4(CCCC4)NC5=O)c23)C1` [Example 86, (7S)-4-[(8′-Chloro-1′,5′-dioxo-1′,5′-dihydro-2′H-spiro[cyclopentane-1,3′-imidazo[1,5-a]pyridin]-6′-yl)amino]-N,N-dimethyl-5,6,7,8-tetrahydro[1]benzothieno[2,3-d]pyrimidine-7-carboxamide], 10.00; in that of `O=C1NC2(CCCC2)n2c1c(Cl)cc(Nc1ncnc3sc4c(c13)CC[C@H](C(=O)N1CCC1)C4)c2=O` [Example 87, 6′-{[(7S)-7-(Azetidine-1-carbonyl)-5,6,7,8-tetrahydro[1]benzothieno[2,3-d]pyrimidin-4-yl]amino}-8′-chloro-2′H-spiro[cyclopentane-1,3′-imidazo[1,5-a]pyridine]-1′,5′-dione], 9.70.
Turning to `Cc1cc(Nc2ncnc3sc4c(c23)CC[C@H](C(=O)N2C[C@H]3C[C@@H]2CO3)C4)c(=O)n2c1C(=O)NC21CS(=O)(=O)C1` [Example 72, 8-Methyl-6-({(7S)-7-[(1R,4R)-2-oxa-5-azabicyclo[2.2.1]hept-5-ylcarbonyl]-5,6,7,8-tetrahydro[1]benzothieno[2,3-d]pyrimidin-4-yl}amino)-2H-spiro[imidazo[1,5-a]pyridine-3,3′-thietane]-1,5-dione 1′,1′-dioxide], the pIC50 is 9.15.
In the case of `O=C1NC2(CCCCC2)n2c1c(Cl)cc(Nc1ncnc3sc4c(c13)CC[C@H](C(=O)N1C[C@H]3C[C@@H]1CO3)C4)c2=O` [Example 81, 8′-Chloro-6′-({(7S)-7-[(1R,4R)-2-oxa-5-azabicyclo[2.2.1]hept-5-ylcarbonyl]-5,6,7,8-tetrahydro[1]benzothieno[2,3-d]pyrimidin-4-yl}amino)-2′H-spiro[cyclohexane-1,3′-imidazo[1,5-a]pyridine]-1′,5′-dione] it was 9.52.
